{
  "source": "patent US6787651B2",
  "about": "“Substituted indoles, pharmaceutical compounds containing such indoles and their use as PPAR-γ binding agents” (SmithKline Beecham Corporation, priority 2000, dated 2004)",
  "data": [
    {"target": "T1, PPARγ ligand binding domain (LBD) (amino acids 195-475) (Homo sapiens, UniProt P37231)", "T1 construct": "polyHis; made in house; host or cells: Escherichia coli", "T1 sequence (P37231 195-475 isoform P37231-2)": "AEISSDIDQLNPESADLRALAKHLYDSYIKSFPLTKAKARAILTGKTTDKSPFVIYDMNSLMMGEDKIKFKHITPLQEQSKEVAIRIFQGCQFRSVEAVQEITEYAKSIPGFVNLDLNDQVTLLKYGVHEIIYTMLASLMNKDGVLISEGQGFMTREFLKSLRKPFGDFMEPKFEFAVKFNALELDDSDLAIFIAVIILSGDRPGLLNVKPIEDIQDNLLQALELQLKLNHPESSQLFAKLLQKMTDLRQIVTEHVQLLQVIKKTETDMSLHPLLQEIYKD", "test": "PPAR-γ binding assay (spin plate / gel filtration binding assay, displacement of [3H]BRL 49653)", "conditions": "read-out: IC50 range in the PPAR-γ Binding Assay", "protocol": "The activity of a given compound in binding to PPAR-γ can be assayed routinely according to procedures known in the art. […] The PPAR-γ binding assay described below was used to determine the PPAR-γ binding activities of the compounds of the invention.\nCompounds were tested for their ability to bind to PPARγ using a spin plate assay (gel filtration binding assay). […] Each compound was tested in triplicate. […] The plates were centrifuged (Beckman GS-6R) at 2500 rpm for 5 minutes, 170 μl Scitisafe® scintillation fluid (Fisher) was added to each well, the plates were sealed, and after 1 hour, were counted in a Wallac MicroBeta counter. The amount of nonspecific binding, as assessed by control wells containing 10 μM of the corresponding unlabeled ligand, was subtracted from each data point. For each compound tested, the data was averaged and plots of ligand concentration versus CPM of radioligand bound were constructed. Apparent IC50 values were estimated from nonlinear least-squares fit of the data assuming simple competitive binding.", "units": {"IC50": "nM"}, "values": [
      {"smiles": "COc1cccc(Cn2c(C(=O)O)c(-c3ccc(C4(C)CC4)cc3)c3ccccc32)c1", "note": "[Example 258]", "IC50": "0.1 to 9.99"},
      {"smiles": "COc1cccc(Cn2c(C(=O)O)c(-c3ccc(OCC4CC4)cc3)c3cc(OCC4CC4)ccc32)c1", "note": "[Example 334]", "IC50": "0.1 to 9.99"},
      {"smiles": "COc1cccc(Cn2c(C(=O)O)c(-c3ccc(C(C)(C)C)cc3)c3cc(C(=O)C4CC4)ccc32)c1", "note": "[Example 254]", "IC50": "10 to 10000"},
      {"smiles": "COc1cccc(Cn2c(C(=O)O)c(-c3ccc(OCC(=O)c4ccc(N5CCCC5)cc4)cc3)c3ccccc32)c1", "note": "[Example 310]", "IC50": "10 to 10000"},
      {"smiles": "COc1cccc(Cn2c(C(=O)O)c(-c3ccc(OCC4CCCCO4)cc3)c3ccccc32)c1", "note": "(centres unmarked) [Example 306]", "IC50": "10 to 10000"},
      {"smiles": "COc1cccc(Cn2c(C(=O)O)c(-c3ccc(OCC4CC4)cc3)c3cc(OCc4cccc(C(F)(F)F)c4)ccc32)c1", "note": "[Example 321]", "IC50": "0.1 to 9.99"},
      {"smiles": "COCCOc1ccc2c(c1)c(-c1ccc(OCC3CC3)cc1)c(C(=O)O)n2Cc1cccc(OC)c1", "note": "[Example 312]", "IC50": "0.1 to 9.99"},
      {"smiles": "CCOCCOc1ccc2c(c1)c(-c1cccc(OCC3CC3)c1)c(C(=O)O)n2Cc1cccc(OC)c1", "note": "[Example 271]", "IC50": "0.1 to 9.99"},
      {"smiles": "COc1cccc(Cn2c(C(=O)O)c(-c3ccc(C(C)(C)C)cc3)c3cc(CC4CC4)ccc32)c1", "note": "[Example 253]", "IC50": "0.1 to 9.99"},
      {"smiles": "O=C(O)c1c(-c2cccc(OCC3CC3)c2)c2ccccc2n1Cc1cccc(OC(F)(F)F)c1", "note": "[Example 340]", "IC50": "0.1 to 9.99"},
      {"smiles": "CC(C)(C)c1ccc2oc(-c3c(C(=O)O)n(Cc4cccc(C(F)(F)F)c4)c4ccccc34)nc2c1", "note": "[Example 249]", "IC50": "0.1 to 9.99"},
      {"smiles": "COc1cccc(COc2ccc3c(c2)c(-c2ccc(OCC4CC4)cc2)c(C(=O)O)n3Cc2cccc(OC)c2)c1", "note": "[Example 315]", "IC50": "0.1 to 9.99"},
      {"smiles": "COc1cccc(Cn2c(C(=O)O)c(-c3ccc(C(=O)N(C)C4CCCC4)cc3)c3ccccc32)c1", "note": "[Example 304]", "IC50": "0.1 to 9.99"},
      {"smiles": "COc1cccc(-c2c(C(=O)O)n(Cc3cccc(OCC4CC4)c3)c3ccccc23)c1", "note": "[Example 283]", "IC50": "0.1 to 9.99"},
      {"smiles": "CC(=O)c1cnc(-c2c(C(=O)O)n(Cc3cccc(C(F)(F)F)c3)c3ccccc23)s1", "note": "[Example 342]", "IC50": "0.1 to 9.99"},
      {"smiles": "CN1CCN(C(=O)c2c(C(=O)O)n(Cc3cccc(C(F)(F)F)c3)c3ccccc23)CC1", "note": "[Example 246]", "IC50": "10 to 10000"},
      {"smiles": "COc1ccc(-c2c(C(=O)O)n(S(=O)(=O)c3cccc(C(F)(F)F)c3)c3ccccc23)cc1", "note": "[Example 337, 3-(4-Methoxyphenyl)-1-{[3-(trifluoromethyl)phenyl]sulfonyl}indole-2-carboxylic acid]", "IC50": "10 to 10000"},
      {"smiles": "C=CCOc1ccc2c(c1)c(-c1ccc(OCC3CC3)cc1)c(C(=O)O)n2Cc1cccc(OC)c1", "note": "[Example 333]", "IC50": "10 to 10000"},
      {"smiles": "COc1cccc(Cn2c(C(=O)O)c(-c3ccc(SC4CC4)cc3)c3ccccc32)c1", "note": "[Example 263]", "IC50": "0.1 to 9.99"},
      {"smiles": "COc1cccc(Cn2c(C(=O)O)c(-c3ccc(C4CC4)cc3)c3ccccc32)c1", "note": "[Example 261]", "IC50": "0.1 to 9.99"},
      {"smiles": "O=C(O)c1c(-c2nc3ccccc3o2)c2ccccc2n1Cc1cccc(C(F)(F)F)c1", "note": "[Example 247]", "IC50": "10 to 10000"},
      {"smiles": "COc1cccc(Cn2c(C(=O)O)c(-c3ccc(C(C)(C)C)cc3)c3cccc(CC4CC4)c32)c1", "note": "[Example 256]", "IC50": "10 to 10000"},
      {"smiles": "COc1cccc(Cn2c(C(=O)O)c(-c3cccc(NC(=O)C4CC4)c3)c3ccccc32)c1", "note": "[Example 326]", "IC50": "10 to 10000"},
      {"smiles": "COc1cccc(Cn2c(C(=O)O)c(-c3ccc(OCC4CC4)cc3)c3cc(OCc4ccc(C(C)(C)C)cc4)ccc32)c1", "note": "[Example 318]", "IC50": "10 to 10000"},
      {"smiles": "O=C(O)c1c(-c2ccc(C3CC3)cc2)c2ccccc2n1Cc1cccc(C(F)(F)F)c1", "note": "[Example 260]", "IC50": "0.1 to 9.99"},
      {"smiles": "COc1cccc(Cn2c(C(=O)O)c(-c3ccc(C(C)(C)C)cc3)c3cc(C(O)C4CC4)ccc32)c1", "note": "(centres unmarked) [Example 255]", "IC50": "10 to 10000"},
      {"smiles": "O=C(O)c1c(-c2nc3ccccc3s2)c2ccccc2n1Cc1cccc(OCC2CC2)c1", "note": "[Example 250]", "IC50": "0.1 to 9.99"},
      {"smiles": "O=C(O)c1c(C(=O)N2CCOCC2)c2ccccc2n1Cc1cccc(C(F)(F)F)c1", "note": "[Example 245]", "IC50": "10 to 10000"},
      {"smiles": "O=C(O)c1c(C2=NC3(CCCC3)CO2)c2ccccc2n1Cc1cccc(C(F)(F)F)c1", "note": "[Example 239]", "IC50": "10 to 10000"}
    ]}
  ]
}
